Laboratory results taken from patent US20170333532A1, “ADP'ASE-ENHANCED APYRASE THERAPY FOR WOUNDS, MICROBIAL INFECTION, SEPSIS, AND HETEROTOPIC OSSIFICATION” (APT THERAPEUTICS, INC, priority 2014, published 2017).

Key:
[1] = test system: P. aeruginosa strain AU1292; experiment: Killing of P. aeruginosa AU1292 by colistin with Apyrase Agent, CFU count; assay type: cell-based; conditions: colistin at less than 20 μg/ml, with Apyrase Agent 2 U/ml or alone
Experimental: (§1) In this Example (and in subsequent Examples), the colistin is colistin sulfate salt, catalog number C4461 from Sigma-Aldrich (St. Louis, Mo.) and the apyrase is catalog number M0393L from New England BioLabs Inc. (Ipswich, Mass.).
P. aeruginosa strain AU1292 is grown in the presence of combinations of 0 and 2 U/ml of Apyrase Agent and approximately 0 to 20 μg/ml of colistin. After incubation, the numbers of viable cells are determined by counting the colony forming units (CFU) on the plate (data provided as CFU/ml). Apyrase Agent improves the efficiency of killing P. aeruginosa strain AU1292 by colistin. Apyrase Agent increases the effectiveness of colistin at less than 20 μg/ml such that less than 10 to 100 CFU/ml are detected relative to greater than 10^4 to 10^5 in the presence of colistin alone at the same concentrations.

[2] = test system: P. aeruginosa AU0584; experiment: Killing of P. aeruginosa AU0584 by colistin with Apyrase Agent, CFU count; assay type: cell-based; conditions: colistin at less than 10 μg/ml, with Apyrase Agent 2 U/ml or alone
Experimental: as §1
P. aeruginosa AU0584 is grown in the presence of combinations of 0 and 2 U/ml of Apyrase Agent and approximately 0 to 20 μg/ml of colistin. After incubation, the numbers of viable cells are determined by counting the colony forming units (CFU) on the plate (data provided as CFU/ml). Apyrase Agent improves the efficiency of killing P. aeruginosa AU0584 by colistin. Apyrase Agent increases the effectiveness of colistin at less than 10 μg/ml such that less than 10 to 100 CFU/ml are detected relative to greater than 10^3 to 10^4 in the presence of colistin alone at the same concentrations.

colistin sulfate salt
numbers of viable cells (CFU) [1]: 10^4 to 10^5 CFU/ml
numbers of viable cells (CFU) [2]: 10^3 to 10^4 CFU/ml
